Literature values as cited in US20100029676A1 (priority 2005, published 2010).

System: imatinib-resistant BCR-ABL mutants
Conditions: number of mutants active / tested; Weisberg et al.

For `Cc1cn(-c2cc(NC(=O)c3ccc(C)c(Nc4nccc(-c5cccnc5)n4)c3)cc(C(F)(F)F)c2)cn1` [AMN107], the “imatinib-resistant BCR-ABL mutants against which significantly active” value is given as 32/33.
